These results are taken from patent US20230393140A1, “BINDING ASSAYS INVOLVING A PLURALITY OF SYNTHETIC COMPOUNDS, TARGETS, AND COUNTER TARGETS” (SRI International, priority 2020, published 2023).

Numbered stars: 1 amine (or outer) side, 2 acyl side, 3 side chain; on linkers, the order of the positions; unused ones are H or OH. Square brackets hold non-standard residues; d marks the D form. Peptide text beside a SMILES is read from it. * marks the point of attachment. 5FAM = O=C1OC2(c3ccc(O)cc3Oc3cc(O)ccc32)c2ccc(C(=O)*)cc21; NHCH2C6H4(4-CH2CONH2) = NC(=O)Cc1ccc(CN*)cc1; X1 = O=C(Cc1ccc(CN[*:1])cc1)[*:2]

Sequence of TNFα (P01375 77-233 limits assumed): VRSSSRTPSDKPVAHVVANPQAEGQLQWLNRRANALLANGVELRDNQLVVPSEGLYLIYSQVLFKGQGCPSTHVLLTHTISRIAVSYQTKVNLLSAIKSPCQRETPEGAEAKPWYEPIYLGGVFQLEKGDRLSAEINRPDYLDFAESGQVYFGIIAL

This assay addresses TNFα (Homo sapiens, UniProt P01375). As to the kind of experiment: MST binding affinity of resynthesized NNP hits to TNFα. Details: purchased R&D Systems, Inc. 210-TA/CF. Particulars: read-out: KD (nM) [95% conf. int], NNP2 library hit, target TNFα, one-site binding model. Put shortly: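 Microscale thermophoresis at room temperature, triplicate, 15, 30 and 45 min incubations; targets labeled with RED-NHS 647 dye. Buffers (all 20 mM HEPES pH 7.4 unless noted): IL-6 150 mM KCl, 10 mM MgCl2, 0.1% Pluronic F-127; IL-6R 150 mM NaCl, 10 mM MgCl2, 0.05% Tween-20; TNFα 10 mM HEPES, 150 mM NaCl, 10 mM MgCl2, 0.05% Polysorbate-20; ASGPR adds 2 mM CaCl2, 0.05% Pluronic F-127, 1 mM DTT.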
Consider `CC(C)C[C@H](NC(=O)[C@@H](CCCNC(=N)N)NC(=O)[C@@H](CCC(=O)O)NC(=O)Cc1ccc(CNC(=O)[C@H](Cc2ccccc2)NC(=O)CNC(=O)[C@@H](C)NC(=O)Cc2ccc(CNC(=O)[C@@H](NC(=O)[C@@H](CCCNC(=N)N)NC(=O)[C@H]3CCCN3C(=O)Cc3ccc(CNC(=O)[C@@H](NC(=O)[C@@H](CCC(=O)O)NC(=O)[C@@H](Cc4ccccc4)NC(=O)Cc4ccc(CNC(=O)[C@H](Cc5ccccc5)NC(=O)[C@@H](C)NC(=O)[C@@H](C)NC(=O)Cc5ccc(CNC(=O)[C@H](CC(C)C)NC(=O)[C@H](NC(=O)[C@@H](CCCCN)NC(=O)c6ccc7c(c6)C(=O)OC76c7ccc(O)cc7Oc7cc(O)ccc76)C(C)C)cc5)cc4)C(C)C)cc3)C(C)C)cc2)cc1)C(=O)NCc1ccc(CC(=O)N2CCC[C@@H]2C(=O)N[C@@H](C(=O)NCC(=O)NCc2ccc(CC(=O)N[C@H](Cc3c[nH]c4ccccc34)C(=O)N[C@H](CCCCN)C(=O)N[C@@H](CC(C)C)C(=O)NCc3ccc(CC(=O)N4CCC[C@@H]4C(=O)N[C@H](C)C(=O)N[C@@H](C)C(=O)NCc4ccc(CC(N)=O)cc4)cc3)cc2)C(C)C)cc1` [TNF-39-10] (5FAM-[dK][dV]L[X1][dA][dA]F[X1][dF][dE]V[X1][dP][dR]V[X1][dA]GF[X1][dE][dR]L[X1][dP][dV]G[X1][dW][dK]L[X1][dP][dA]A-{NHCH2C6H4(4-CH2CONH2)}), for which the Kd was determined as 38 nM.

As for `CC(C)C[C@H](NC(=O)[C@@H](CCCCN)NC(=O)[C@@H](Cc1c[nH]c2ccccc12)NC(=O)Cc1ccc(CNC(=O)CNC(=O)[C@H](NC(=O)[C@H]2CCCN2C(=O)Cc2ccc(CNC(=O)[C@H](Cc3ccccc3)NC(=O)[C@@H](CCCNC(=N)N)NC(=O)[C@@H](CC(N)=O)NC(=O)Cc3ccc(CNC(=O)[C@H](Cc4ccccc4)NC(=O)[C@@H](CCCCN)NC(=O)[C@@H](C)NC(=O)Cc4ccc(CNC(=O)[C@H](C)NC(=O)[C@@H](CCCNC(=N)N)NC(=O)[C@@H](Cc5ccccc5)NC(=O)Cc5ccc(CNC(=O)[C@@H](NC(=O)[C@@H](CCC(=O)O)NC(=O)[C@@H](Cc6ccccc6)NC(=O)Cc6ccc(CNC(=O)[C@H](CC(C)C)NC(=O)[C@@H](CCCNC(=N)N)NC(=O)[C@@H](CC(C)C)NC(=O)Cc7ccc(CNC(=O)[C@H](CC(C)C)NC(=O)[C@H](NC(=O)[C@@H](CCCCN)NC(=O)c8ccc9c(c8)C(=O)OC98c9ccc(O)cc9Oc9cc(O)ccc98)C(C)C)cc7)cc6)C(C)C)cc5)cc4)cc3)cc2)C(C)C)cc1)C(=O)NCc1ccc(CC(=O)N[C@H](Cc2ccc(O)cc2)C(=O)N[C@H](CCCNC(=N)N)C(=O)N[C@@H](Cc2ccccc2)C(=O)NCc2ccc(CC(N)=O)cc2)cc1` [TNF-39-11] (5FAM-[dK][dV]L[X1][dL][dR]L[X1][dF][dE]V[X1][dF][dR]A[X1][dA][dK]F[X1][dN][dR]F[X1][dP][dV]G[X1][dW][dK]L[X1][dY][dR]F-{NHCH2C6H4(4-CH2CONH2)}), the Kd came to 86 nM.

Regarding `CC(C)C[C@H](NC(=O)[C@@H](CCCNC(=N)N)NC(=O)CNC(=O)Cc1ccc(CNC(=O)[C@H](CC(C)C)NC(=O)[C@H](NC(=O)[C@@H](CO)NC(=O)c2ccc3c(c2)C(=O)OC32c3ccc(O)cc3Oc3cc(O)ccc32)C(C)C)cc1)C(=O)NCc1ccc(CC(=O)N[C@H](Cc2ccccc2)C(=O)N[C@H](CCC(=O)O)C(=O)N[C@H](C(=O)NCc2ccc(CC(=O)N[C@H](Cc3ccccc3)C(=O)N[C@H](CCCCN)C(=O)N[C@@H](CC(C)C)C(=O)NCc3ccc(CC(=O)N[C@H](Cc4ccc(O)cc4)C(=O)N[C@H](CCCCN)C(=O)N[C@@H](C)C(=O)NCc4ccc(CC(=O)N[C@H](CCC(=O)O)C(=O)N[C@H](Cc5c[nH]c6ccccc56)C(=O)N[C@@H](C)C(=O)NCc5ccc(CC(=O)N[C@H](C)C(=O)N[C@H](CCCNC(=N)N)C(=O)N[C@@H](CC(C)C)C(=O)NCc6ccc(CC(=O)N[C@H](CCC(=O)O)C(=O)N[C@H](Cc7ccc(O)cc7)C(=O)N[C@@H](Cc7ccccc7)C(=O)NCc7ccc(CC(=O)N[C@H](Cc8ccc(O)cc8)C(=O)N[C@H](CCCNC(=N)N)C(=O)N[C@@H](Cc8ccccc8)C(=O)NCc8ccc(CC(N)=O)cc8)cc7)cc6)cc5)cc4)cc3)cc2)C(C)C)cc1` [TNF-39-13] (5FAM-[dS][dV]L[X1]G[dR]L[X1][dF][dE]V[X1][dF][dK]L[X1][dY][dK]A[X1][dE][dW]A[X1][dA][dR]L[X1][dE][dY]F[X1][dY][dR]F-{NHCH2C6H4(4-CH2CONH2)}), the dissociation constant Kd stood at 40 nM.

Regarding `CC(C)C[C@H](NC(=O)[C@@H](CCCCN)NC(=O)[C@@H](CC(C)C)NC(=O)Cc1ccc(CNC(=O)[C@H](CC(C)C)NC(=O)[C@@H](CCCNC(=N)N)NC(=O)[C@@H](CC(C)C)NC(=O)Cc2ccc(CNC(=O)[C@H](CC(C)C)NC(=O)[C@@H](CC(C)C)NC(=O)[C@@H](Cc3ccc(O)cc3)NC(=O)c3ccc4c(c3)C(=O)OC43c4ccc(O)cc4Oc4cc(O)ccc43)cc2)cc1)C(=O)NCc1ccc(CC(=O)N[C@H](Cc2ccccc2)C(=O)N[C@H](CCCNC(=N)N)C(=O)N[C@@H](C)C(=O)NCc2ccc(CC(=O)N[C@H](C)C(=O)N[C@H](CCCCN)C(=O)N[C@@H](Cc3ccccc3)C(=O)NCc3ccc(CC(=O)N[C@H](Cc4ccccc4)C(=O)N[C@@H](C(=O)N[C@@H](C)C(=O)NCc4ccc(CC(=O)N5CCC[C@@H]5C(=O)N[C@@H](C(=O)NCC(=O)NCc5ccc(CC(=O)N[C@@H](C(=O)N[C@H](Cc6c[nH]cn6)C(=O)N[C@@H](CC(C)C)C(=O)NCc6ccc(CC(=O)N[C@@H](C(=O)N[C@H](CO)C(=O)N[C@H](C(=O)NCc7ccc(CC(N)=O)cc7)C(C)C)[C@H](C)O)cc6)[C@H](C)O)cc5)C(C)C)cc4)[C@H](C)O)cc3)cc2)cc1` [TNF-39-14] (5FAM-[dY][dL]L[X1][dL][dR]L[X1][dL][dK]L[X1][dF][dR]A[X1][dA][dK]F[X1][dF][dT]A[X1][dP][dV]G[X1][dT][dH]L[X1][dT][dS]V-{NHCH2C6H4(4-CH2CONH2)}), the Kd turned out to be 36 nM.

`CC(C)C[C@H](NC(=O)[C@@H](CCCNC(=N)N)NC(=O)CNC(=O)Cc1ccc(CNC(=O)[C@H](CC(C)C)NC(=O)[C@H](NC(=O)[C@@H](CCCCN)NC(=O)c2ccc3c(c2)C(=O)OC32c3ccc(O)cc3Oc3cc(O)ccc32)C(C)C)cc1)C(=O)NCc1ccc(CC(=O)N[C@H](Cc2ccccc2)C(=O)N[C@H](CCC(=O)O)C(=O)N[C@H](C(=O)NCc2ccc(CC(=O)N[C@H](Cc3ccccc3)C(=O)N[C@H](CCCNC(=N)N)C(=O)N[C@@H](C)C(=O)NCc3ccc(CC(=O)N[C@H](Cc4c[nH]c5ccccc45)C(=O)N[C@H](CCCNC(=N)N)C(=O)N[C@H](C(=O)NCc4ccc(CC(=O)N[C@H](CCC(=O)O)C(=O)N[C@H](CCCNC(=N)N)C(=O)N[C@@H](CC(C)C)C(=O)NCc5ccc(CC(=O)N[C@H](Cc6c[nH]cn6)C(=O)N[C@H](CCC(=O)O)C(=O)N[C@@H](CC(C)C)C(=O)NCc6ccc(CC(=O)N[C@H](CCCCN)C(=O)N[C@H](Cc7ccccc7)C(=O)N[C@@H](Cc7ccccc7)C(=O)NCc7ccc(CC(=O)N[C@H](Cc8ccc(O)cc8)C(=O)N[C@H](CCCNC(=N)N)C(=O)N[C@@H](Cc8ccccc8)C(=O)NCc8ccc(CC(N)=O)cc8)cc7)cc6)cc5)cc4)C(C)C)cc3)cc2)C(C)C)cc1` [TNF-39-15] (5FAM-[dK][dV]L[X1]G[dR]L[X1][dF][dE]V[X1][dF][dR]A[X1][dW][dR]V[X1][dE][dR]L[X1][dH][dE]L[X1][dK][dF]F[X1][dY][dR]F-{NHCH2C6H4(4-CH2CONH2)}): the dissociation constant (Kd) stood at 46 nM.

The Kd is a measure of binding affinity in units of concentration.
